Data: US7897606B2, “5,6-di-substituted oxadiazolopyrazines and thiadiazolopyrazines as CXC-chemokine receptor ligands” (Schering Corporation, priority 2005, dated 2011)

Key:
[1] = biological target: T1, CXCR2 (Homo sapiens, UniProt P25025); experiment: CXCR2 SPA receptor binding assay
T1 construct: purchased Biosignal; host or cells: CHO cells overexpressing hCXCR2 (membranes)
T1 sequence (P25025 1-360): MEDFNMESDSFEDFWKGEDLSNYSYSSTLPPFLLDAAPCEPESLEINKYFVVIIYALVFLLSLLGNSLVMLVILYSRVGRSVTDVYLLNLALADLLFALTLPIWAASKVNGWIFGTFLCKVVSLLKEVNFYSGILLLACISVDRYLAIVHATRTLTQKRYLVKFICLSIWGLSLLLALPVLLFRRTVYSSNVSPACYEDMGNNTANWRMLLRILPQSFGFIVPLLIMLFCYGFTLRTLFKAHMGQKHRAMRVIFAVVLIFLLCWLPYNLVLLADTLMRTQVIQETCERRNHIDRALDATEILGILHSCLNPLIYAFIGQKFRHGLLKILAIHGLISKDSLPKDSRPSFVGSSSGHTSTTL
Description: For each well of a 96 well plate, a reaction mixture of 4 μg hCXCR2-CHO overexpressing membranes (Biosignal) and 200 μg/well WGA-SPA beads (Amersham) in 100 μl can be prepared in CXCR2 assay buffer (25 mM HEPES, pH 7.4, 2 mM CaCl2, 1 mM MgCl2). A 0.4 nM stock of ligand, [125I]-IL-8 (NEN), can be prepared in the CXCR2 assay buffer. 20× stock solutions of test compounds can be prepared in DMSO (Sigma). A 6× stock solution of GRO-α (R&D) can be prepared in CXCR2 assay buffer. The above solutions can be added to a 96-well assay plate (PerkinElmer or Corning) as follows: 10 μl test compound or DMSO, 40 ul CXCR2 assay buffer or GRO-α stock, 100 μl of reaction mixture, 50 μl of ligand stock (Final [Ligand]=0.1 nM). When 40× stock solutions of test compounds in DMSO can be prepared, then the above protocol can be used except instead 5 μl test compound or DMSO and 45 μl CXCR2 assay buffer can be used. The assay plates can be shaken for 5 minutes on a plate shaker, then incubated for 2-8 hours before cpm/well can be determined in Microbeta Trilux counter (PerkinElmer). % Inhibition of total binding minus non-specific binding (250 nM Gro-α or 50 μM antagonist) can be determined and IC50 values can be calculated.

[2] = biological target: T2, CXCR1 (Homo sapiens, UniProt P25024); experiment: CXCR1 SPA receptor binding assay
T2 construct: purchased Biosignal; host or cells: CHO cells overexpressing hCXCR1 (membranes)
T2 sequence (P25024 1-350): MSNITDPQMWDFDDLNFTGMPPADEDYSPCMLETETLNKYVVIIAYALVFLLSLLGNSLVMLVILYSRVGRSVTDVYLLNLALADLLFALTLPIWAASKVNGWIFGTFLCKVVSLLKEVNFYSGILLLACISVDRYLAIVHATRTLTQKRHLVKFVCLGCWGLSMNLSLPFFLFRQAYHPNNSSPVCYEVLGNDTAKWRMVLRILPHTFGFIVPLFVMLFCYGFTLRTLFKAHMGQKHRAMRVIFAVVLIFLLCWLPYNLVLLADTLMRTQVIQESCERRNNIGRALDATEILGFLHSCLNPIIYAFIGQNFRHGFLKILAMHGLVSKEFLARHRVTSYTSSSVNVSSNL
Description: For each well of a 96 well plate, a reaction mixture of 10 μg hCXCR1-CHO overexpressing membranes (Biosignal) and 200 μg/well WGA-SPA beads (Amersham) in 100 μl can be prepared in CXCR1 assay buffer (25 mM HEPES, pH 7.8, 2 mM CaCl2, 1 mM MgCl2, 125 mM NaCl, 0.1% BSA) (Sigma). A 0.4 nM stock of ligand, [125I]-IL-8 (NEN) can be prepared in the CXCR1 assay buffer. 20× stock solutions of test compounds can be prepared in DMSO (Sigma). A 6× stock solution of IL-8 (R&D) can be prepared in CXCR2 assay buffer. The above solutions can be added to a 96-well assay plate (PerkinElmer) as follows: 10 μl test compound or DMSO, 40 μl CXCR1 assay buffer or IL-8 stock, 100 μl of reaction mixture, 50 μl of ligand stock (Final [Ligand]=0.1 nM). The assay plates can be shaken for 5 minutes on plate shaker, then incubated for 8 hours before cpm/well can be determined in Microbeta Trilux counter (PerkinElmer). % Inhibition of Total binding-NSB (250 nM IL-8) can be determined for IC50 values.

With `CC[C@@H](Nc1nc2nonc2nc1Nc1cccc(C(=O)N(C)C)c1O)c1ccc(C)o1` [Compound 4] the Ki [1] was 196 nM and the Ki [2] was 4220 nM.
